US11053204B2, “Pyrimidinyloxy benzene derivatives as herbicides” (FMC Corporation, priority 2015, dated 2021)

Columns and labels:
Assay in all cases: Test C flooded paddy test, plant response rating
Format in all cases: in vivo
Conditions in all cases: flood, scale 0 to 100
[1] = system: barnyardgrass (Echinochloa crus-galli)
Excerpt: (§1) At the same time, plants selected from these crop and weed species and also chickweed (common chickweed, Stellaria media), buckwheat, wild (wild buckwheat, Polygonum convolvulus), wild mustard (Sinapis arvensis), field poppy (Papaver rhoeas), field violet (Viola arvensis), geranium, cutleaf (cutleaf geranium, Geranium dissectum), Canada thistle (Cirsium arvense), and speedwell (bird's-eye speedwell, Veronica persica), were planted in pots containing Sunshine Redi-Earth® planting medium comprising spaghnum peat moss, vermiculite, starter nutrients and dolomitic limestone and treated with postemergence applications of test chemicals formulated in the same manner. Plants ranged in height from 2 to 18 cm (1- to 4-leaf stage) for postemergence treatments. Treated plants and controls were maintained in a greenhouse for 13 to 15 d, after which time all species were compared to controls and visually evaluated. Plant response ratings, summarized in Table C, are based on a scale of 0 to 100 where 0 is no effect and 100 is complete control. A dash (-) response means no test result.
(§2) Plant species in the flooded paddy test consisted of rice (Oryza sativa), sedge, umbrella (small-flower umbrella sedge Cyperus difformis), ducksalad (Heteranthera limosa), and barnyardgrass (Echinochloa crus-galli) grown to the 2-leaf stage for testing. At time of treatment, test pots were flooded to 3 cm above the soil surface, treated by application of test compounds directly to the paddy water, and then maintained at that water depth for the duration of the test.

[2] = system: ducksalad (Heteranthera limosa)
Excerpt: as §1, §2

rice (Oryza sativa) = system: rice (Oryza sativa)
Excerpt: as §1, §2

[3] = system: sedge, umbrella (small-flower umbrella sedge Cyperus difformis)
Excerpt: as §1, §2

SMILES | Barnyardgrass plant response rating ([1]; 31 g ai/ha) | Barnyardgrass plant response rating ([1]; 62 g ai/ha) | Barnyardgrass plant response rating ([1]; 125 g ai/ha) | Barnyardgrass plant response rating ([1]; 250 g ai/ha) | Ducksalad plant response rating ([2]; 31 g ai/ha) | Ducksalad plant response rating ([2]; 62 g ai/ha) | Ducksalad plant response rating ([2]; 125 g ai/ha) | Ducksalad plant response rating ([2]; 250 g ai/ha) | Rice plant response rating (rice (Oryza sativa); 31 g ai/ha) | Rice plant response rating (rice (Oryza sativa); 62 g ai/ha) | Rice plant response rating (rice (Oryza sativa); 125 g ai/ha) | Rice plant response rating (rice (Oryza sativa); 250 g ai/ha) | Sedge, Umbrella plant response rating ([3]; 31 g ai/ha) | Sedge, Umbrella plant response rating ([3]; 62 g ai/ha) | Sedge, Umbrella plant response rating ([3]; 125 g ai/ha) | Sedge, Umbrella plant response rating ([3]; 250 g ai/ha)
C=C(Br)COC(=O)c1c(Br)cccc1Oc1ncc(Cl)cn1 [Compound 61] | 0 | 0 | 20 | 40 | 50 | 75 | 90 | 90 | 20 | 20 | 20 | 20 | 80 | 80 | 85 | 85
O=C(CCC(F)(F)F)c1c(Br)cccc1Oc1ncc(Cl)cn1 [Compound 92] | 0 | 0 | 20 | 40 | 30 | 60 | 95 | 100 | 10 | 15 | 15 | 15 | 20 | 60 | 90 | 100
